Measurements published in US4918074A, “Polyazaheterocycle compounds” (Yoshitomi Pharmaceutical Industries, Ltd., priority 1984, dated 1990).

Columns and labels:
Rabbit aorta = assay: Ca2+-agonistic and antagonistic activity in rabbit aorta; conditions: compound 10^-6 M
Procedure: Rabbit aorta were isolated and cut into ring segments of about 2 mm. These preparations were suspended in 40 ml chambers filled with Krebs-Henseleit solution bubbled with a gas mixture of 95% O2 +5% CO2 (pH 7.4) and kept at 37° C. The contractile response to [K^+ ]o (9-48 mM) was measured in the absence or presence of test compounds (1).
That is, at lower [K^+ ]o these compounds augmented contractile force, however, at higher [K^+ ]o they produced only relaxation of aorta. [K^+ ]o, at which conversion of the effects of compounds (10^-6 M) occurred, was as follows.

Papillary muscle = assay: Ca2+-agonistic and antagonistic action in rabbit myocardium (papillary muscle); conditions: compound 10^-4 M
Procedure: Papillary muscle was isolated from rabbit heart and suspended in 40 ml chamber filled with Krebs-Henseleit solution ([Ca^2+ ]o was elevated to 5 mM) bubbled with a gas mixture of 95% O2 +5% CO2 and kept at 37° C. The preparation was electrically driven at a rate of 0.5 Hz and developed tension was observed. [K^+ ]o was varied from 5.9 mM to 27 mM in the absence and presence of test compounds.
[K^+ ]o, at which conversion of the effects of compounds (10^-4 M) occurred, was as follows.

ddY strain mice = assay: Acute toxicity in mice; type: in vivo; conditions: five days after administration
Excerpt: Compound (1), (10) and (23) were orally or intraperitoneally administered to ddY strain mice.

[1] = system: coronary arterial blood flow; assay: Coronary vasodilating effects in the anesthetized dog; type: in vivo; conditions: Canis lupus familiaris, iv, read-out: Increase in coronary blood flow; for change in vivo at 0.3 mg/kg: 300 μg/kg
Procedure: (§1) Adult mongrel dogs were anesthetized with sodium pentobarbital (30 mg/kg i.v.). Effects of test compounds on arterial blood pressure, coronary arterial blood flow, vertebral blood flow, renal blood flow, left ventricular dp/dt max (dp/dt max) and urine volume were observed. The compounds were administered intravenously (i.v.) or intraduodenally (i.d.).

[2] = system: left ventricular dp/dt max; assay: Cardiotonic effects in the anesthetized dog; type: in vivo; conditions: Canis lupus familiaris, iv, read-out: Increase in dp/dt max; for change in vivo at 0.3 mg/kg: 300 μg/kg
Procedure: as §1

left coronary blood flow = assay: Coronary blood flow after injection into left coronary artery of anesthetized dogs; type: in vivo; conditions: intracoronary injection, anesthetized dog; dose to increase CBF by half of the effect of nifedipine (3 μg)
Procedure: (§2) Dogs of either sex were anesthetized with sodium pentobarbital (30 mg/kg i.v.). Heparin (500 U/kg i.v.) was administered before making preparation. Under artificial respiration (18 strokes/min, 20 ml/kg tidal volume), left ventricular dp/dt max, and left coronary blood flow were measured (1). Test compounds were injected into the left coronary artery in a volume of 10 or 30 μl. The effects of compounds on coronary blood flow were observed and presented generally as ED50, a dose required to increase coronary blood flow by a half of the effects of nifedipine (3 μg). Similarly, the effects on dp/dt max were observed and shown as ED30, a dose required to increase dp/dt max by 30% of the efffects of isoproterenol (0.1 μg).

[3] = system: left ventricular dp/dt max; assay: Left ventricular dp/dt max after injection into left coronary artery of anesthetized dogs; type: in vivo; conditions: intracoronary injection, anesthetized dog; dose to increase dp/dt max by 30% of effect of isoproterenol (0.1 μg)
Procedure: as §2

arterial blood pressure = assay: Hypotensive effects in the anesthetized dog; type: in vivo; conditions: Canis lupus familiaris, iv, read-out: Hypotensive effect; for inhibition in vivo at 0.3 mg/kg: 300 μg/kg
Procedure: as §1

[4] = system: blood pressure, coronary, renal and heart function; assay: Cardiovascular and renal activity in words; type: in vivo
[5] = Oral bioavailability in words; type: in vivo

Structure (SMILES)	[K+]o at which conversion of Ca2+-agonistic to Ca2+-antagonistic action occurred (Rabbit aorta)	[K+]o at which conversion of Ca2+-agonistic to Ca2+-antagonistic action occurred (Papillary muscle)	Increase in CBF ED50 (left coronary blood flow)	Increase in dp/dt max ED30 [3]	change in vivo at 0.3 mg/kg [1]	change in vivo at 0.3 mg/kg [2]	also measured
CCOC(=O)C1=C(C)Nc2ccnn2C1c1ccccc1C(F)(F)F (centres unmarked) [(1), 6-Ethoxycarbonyl-5-methyl-7-(2-trifluoromethylphenyl)-4,7-dihydropyrazolo[1,5-a]pyrimidine]	23 mM	16 mM	–	–	–	–	Survival (ddY strain mice; intraperitoneal, 250 mg/kg): All mice survived; Survival (ddY strain mice; oral, 1,000 mg/kg): All mice survived
CCCCOC(=O)C1=C(C)Nc2ccnn2C1c1ccccc1C(F)(F)F (centres unmarked) [(3), 6-Butoxycarbonyl-5-methyl-7-(2-trifluoromethylphenyl)-4,7-dihydropyrazolo[1,5-a]pyrimidine]	24 mM	–	–	–	–	–	change in vivo at 0.1 mg/kg ([1]; 100 μg/kg): 36%; change in vivo at 0.1 mg/kg ([2]; 100 μg/kg): 20%
CC1=C(C(=O)OC(C)C)C(c2ccccc2C(F)(F)F)n2nccc2N1 (centres unmarked) [(10), 6-Isopropoxycarbonyl-5-methyl-7-(2-trifluoromethylphenyl)-4,7-dihydropyrazolo[1,5-a]pyrimidine]	21 mM	15 mM	5.7 µg	71 µg	132%	39%	inhibition in vivo at 0.3 mg/kg (arterial blood pressure): 31%; Survival (ddY strain mice; intraperitoneal, 250 mg/kg): All mice survived; Survival (ddY strain mice; oral, 1,000 mg/kg): All mice survived
CCCOC(=O)C1=C(C)Nc2ccnn2C1c1ccccc1C(F)(F)F (centres unmarked) [(11), 5-Methyl-6-propoxycarbonyl-7-(2-trifluoromethylphenyl)-4,7-dihydropyrazolo[1,5-a]pyrimidine]	22 mM	–	–	–	–	–	change in vivo at 0.01 mg/kg ([1]; 10 μg/kg): 36%
CC1=C(C(=O)OC(C)(C)C)C(c2ccccc2C(F)(F)F)n2nccc2N1 (centres unmarked) [(13), 6-tert-Butoxycarbonyl-5-methyl-7-(2-trifluoromethylphenyl)-4,7-dihydropyrazolo[1,5-a]pyrimidine]	24 mM	14 mM	22 µg	70 µg	34%	39%	–
CC1=C(C(=O)OC2CCCC2)C(c2ccccc2C(F)(F)F)n2nccc2N1 (centres unmarked) [(15), 6-Cyclopentyloxycarbonyl-5-methyl-7-(2-trifluoromethylphenyl)-4,7-dihydropyrazolo[1,5-a]pyrimidine]	20 mM	18 mM	1.8 µg	198 µg	125%	83%	inhibition in vivo at 0.3 mg/kg (arterial blood pressure): 20%
CC1=C(C(=O)OC(C)C)C(c2ccccc2F)n2nccc2N1 (centres unmarked) [(23), 7-(2-Fluorophenyl)-6-isopropoxycarbonyl-5-methyl-4,7-dihydropyrazolo[1,5-a]pyrimidine]	19 mM	12 mM	15 µg	71 µg	157%	44%	inhibition in vivo at 0.3 mg/kg (arterial blood pressure): 32%; Survival (ddY strain mice; intraperitoneal, 250 mg/kg): All mice survived; Survival (ddY strain mice; oral, 1,000 mg/kg): All mice survived
CC1=C(C(=O)OC2CCCC2)C(c2ccccc2F)n2nccc2N1 (centres unmarked) [(25), 6-Cyclopentyloxycarbonyl-7-(2-fluorophenyl)-5-methyl-4,7-dihydropyrazolo[1,5-a]pyrimidine]	–	15 mM	28 µg	164 µg	–	–	–
CC1=C(C(=O)OC(C)C)C(c2ccccc2Br)n2nccc2N1 (centres unmarked) [(27), 7-(2-Bromophenyl)-6-isopropoxycarbonyl-5-methyl-4,7-dihydropyrazolo[1,5-a]pyrimidine]	22 mM	12 mM	7 µg	103 µg	–	–	inhibition in vivo at 0.03 mg/kg (arterial blood pressure; 30 μg/kg): 20%; change in vivo at 0.03 mg/kg ([1]; 30 μg/kg): 37%
CC1=C(C(=O)OC(C)C)C(c2ccccc2C)n2nccc2N1 (centres unmarked) [(30), 6-Isopropoxycarbonyl-5-methyl-7-(2-methylphenyl)-4,7-dihydropyrazolo[1,5-a]pyrimidine]	28 mM	15 mM	–	–	47%	46%	–
CC(C)OC(=O)C1=C(COCCN)Nc2c(C#N)cnn2C1c1cccc(F)c1F (centres unmarked) [isopropyl 5-(2-aminoethoxymethyl)-3-cyano-7-(2,3-difluorophenyl)-4,7-dihydropyrazolo[1,5-a]pyrimidine-6-carboxylate]	–	–	–	–	–	–	Coronary vasodilating activity [4]: high-selective coronary vasodilating activity; Diuretic activity [4]: potent diuretic activity; Heart-depressive activity [4]: weak heart-depressive activity; Hypotensive activity [4]: mild and long-lasting hypotensive activity; Renal blood flow increasing activity [4]: renal blood flow increasing activity; Bioavailability by oral administration [5]: higher bioavailability by the oral administration
